The record followed here is US6562824B2, “Dihydropyridine soft drugs, and related compositions and methods” (Ortho-McNeil Pharmaceutical, Inc., priority 2000, dated 2003).

This assay concerns the target T1, Calcium Channel (3H-nitrendipine binding site, heart membranes) (Oryctolagus cuniculus, UniProt P15381).
T1 construct: from tissue; host or cells: rabbit heart membrane preparation
Kind of assay: Assay for Inhibition of Nitrendipine Binding (3H-nitrendipine, rabbit heart membranes). The settings on record: 3H-nitrendipine 0.05-0.50 nM, 90 minutes. As for the experimental part:
Female, New Zealand white rabbits (1-2 kg) are sacrificed by cervical dislocation, and the heart is immediately removed, cleaned and chopped into small pieces. The tissue is homogenized in 5× times volume of 0.05M Hepes buffer, pH 7.4. The homogenate is centrifuged at 4000g for 10 minutes, and the supernatant is re-centrifuged at 42,000× g for 90 minutes. The resulting membrane pellet is resuspended (0.7 ml/g weight) in 0.05M Hepes, pH 7.4 and stored at […] until used. Each tube of the binding assay contains ^3H-nitrendipine (0.05-0.50 nM), buffer, membranes (0.10 ml), and test compound in a total volume of 1.0 ml. After 90 minutes at 4≦ C., the bound nitrendipine is separated from the unbound by filtration on Whatman GF/C filters. After rinsing, the filters are dried and counted in a liquid scintillation counter.
Non-specific binding of ^3H-nitrendipine (that amount bound in the presence of excess unlabelled nitrendipine) is subtracted from the total bound to obtain specifically bound radiolabeled nitrendipine. The amount of specifically bound nitrendipine in the presence of a test compound is compared to that amount bound in the absence of a compound. A percent displacement (or inhibition) can then be calculated.

Structures are written as SMILES. pIC50: −log10 of the molar value.

T1 sequence (P15381 whole entry): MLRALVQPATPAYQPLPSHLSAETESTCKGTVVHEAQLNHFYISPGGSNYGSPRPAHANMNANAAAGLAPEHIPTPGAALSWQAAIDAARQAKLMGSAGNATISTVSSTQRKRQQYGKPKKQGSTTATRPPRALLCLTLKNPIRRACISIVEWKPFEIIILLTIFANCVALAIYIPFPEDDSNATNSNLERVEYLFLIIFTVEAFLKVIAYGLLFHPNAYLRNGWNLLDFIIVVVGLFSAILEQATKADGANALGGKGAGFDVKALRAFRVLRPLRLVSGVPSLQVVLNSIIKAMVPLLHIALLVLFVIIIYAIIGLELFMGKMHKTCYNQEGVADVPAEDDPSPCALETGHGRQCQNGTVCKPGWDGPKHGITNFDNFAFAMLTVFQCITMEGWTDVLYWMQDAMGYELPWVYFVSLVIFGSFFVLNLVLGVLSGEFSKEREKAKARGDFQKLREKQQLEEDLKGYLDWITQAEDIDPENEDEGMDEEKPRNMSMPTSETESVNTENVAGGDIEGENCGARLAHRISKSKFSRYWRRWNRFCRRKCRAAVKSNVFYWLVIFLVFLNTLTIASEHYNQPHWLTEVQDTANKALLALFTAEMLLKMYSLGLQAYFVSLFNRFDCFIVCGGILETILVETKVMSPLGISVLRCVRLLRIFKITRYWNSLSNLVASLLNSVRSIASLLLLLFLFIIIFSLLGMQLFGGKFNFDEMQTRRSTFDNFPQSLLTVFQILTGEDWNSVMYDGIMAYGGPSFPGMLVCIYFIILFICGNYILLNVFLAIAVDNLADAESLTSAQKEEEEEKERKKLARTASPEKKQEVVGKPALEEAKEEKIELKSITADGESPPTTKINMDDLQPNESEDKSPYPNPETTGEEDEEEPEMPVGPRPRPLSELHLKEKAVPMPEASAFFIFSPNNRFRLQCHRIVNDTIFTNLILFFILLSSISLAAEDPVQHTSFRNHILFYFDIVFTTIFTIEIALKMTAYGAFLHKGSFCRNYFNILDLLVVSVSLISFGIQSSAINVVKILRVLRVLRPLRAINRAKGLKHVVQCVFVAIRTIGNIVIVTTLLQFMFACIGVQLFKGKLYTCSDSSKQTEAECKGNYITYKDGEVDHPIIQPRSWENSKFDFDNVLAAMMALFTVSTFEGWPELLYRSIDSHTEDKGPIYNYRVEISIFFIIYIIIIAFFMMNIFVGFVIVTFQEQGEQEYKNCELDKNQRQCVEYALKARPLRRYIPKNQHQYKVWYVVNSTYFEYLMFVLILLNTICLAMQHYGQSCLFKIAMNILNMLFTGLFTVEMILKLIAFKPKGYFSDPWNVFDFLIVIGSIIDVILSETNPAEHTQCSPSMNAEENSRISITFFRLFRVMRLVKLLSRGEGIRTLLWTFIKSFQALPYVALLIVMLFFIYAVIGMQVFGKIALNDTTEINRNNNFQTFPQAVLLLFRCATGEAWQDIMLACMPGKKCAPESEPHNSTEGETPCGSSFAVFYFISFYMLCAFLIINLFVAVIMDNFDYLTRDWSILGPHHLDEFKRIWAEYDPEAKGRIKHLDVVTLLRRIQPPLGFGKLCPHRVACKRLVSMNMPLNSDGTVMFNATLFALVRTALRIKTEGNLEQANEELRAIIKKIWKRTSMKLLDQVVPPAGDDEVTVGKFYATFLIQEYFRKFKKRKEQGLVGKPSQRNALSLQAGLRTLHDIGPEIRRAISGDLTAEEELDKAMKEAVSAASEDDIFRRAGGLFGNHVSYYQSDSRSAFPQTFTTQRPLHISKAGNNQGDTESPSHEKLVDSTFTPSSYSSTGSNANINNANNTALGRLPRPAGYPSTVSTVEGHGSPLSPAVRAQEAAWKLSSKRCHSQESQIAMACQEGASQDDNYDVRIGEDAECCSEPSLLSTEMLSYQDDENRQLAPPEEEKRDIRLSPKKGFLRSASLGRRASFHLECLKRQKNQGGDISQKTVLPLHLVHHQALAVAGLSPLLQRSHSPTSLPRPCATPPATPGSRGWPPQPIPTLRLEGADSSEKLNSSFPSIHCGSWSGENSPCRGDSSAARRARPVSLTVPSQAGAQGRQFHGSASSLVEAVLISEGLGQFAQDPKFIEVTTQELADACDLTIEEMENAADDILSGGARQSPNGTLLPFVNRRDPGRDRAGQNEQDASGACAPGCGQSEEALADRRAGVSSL

For `CC1=C(C(=O)OCCOC(=O)c2cccc(C#N)c2)C(c2c(F)cccc2Cl)C2=C(CS(=O)(=O)CCCS2(=O)=O)N1` (centres unmarked) [Compound 68, 2H,6H-[1,5]dithiocino[3,2-b]pyridine-9-carboxylic acid, 10-(2-chloro-6-fluorophenyl)-3,4,7,10-tetrahydro-8-methyl-, 2-[(3-cyanobenzoyl)oxy]ethyl ester, 1,1,5,5-tetraoxide], under “Table 2, Formula Ij compounds”, the pIC50 is 7.31. With `CC1=C(C(=O)OCCOC(=O)C(C)C)C(c2c(F)cccc2Cl)C2=C(CS(=O)(=O)CCS2(=O)=O)N1` (centres unmarked) [Compound 56], the pIC50 (Table 1, Formula Ii compounds) was 5.63. Same read-out and setting: the value for `CC1=C(C(=O)OCCOC(=O)c2ccc(C(F)(F)F)cc2)C(c2c(F)cccc2Cl)C2=C(CS(=O)(=O)CCS2(=O)=O)N1` (centres unmarked) [Compound 11, 5H-[1,4]dithiepino[6,5-b]pyridine-8-carboxylic acid, 9-(2-chloro-6-fluorophenyl)-2,3,6,9-tetrahydro-7-methyl-, 2-[[4-(trifluoromethyl)benzoyl]oxy]ethyl ester, 1,1,4,4-tetraoxide] was 7.32.

For the molecule `CC1=C(C(=O)OCCOC(=O)c2cccc(C#N)c2)C(c2c(F)cccc2Cl)C2=C(CS(=O)(=O)CCS2(=O)=O)N1` (centres unmarked) [Compound 18], where the note is “Table 1, Formula Ii compounds”, the pIC50 was 7.21. As to `COc1ccc(C(=O)OCCOC(=O)C2=C(C)NC3=C(C2c2c(F)cccc2Cl)S(=O)(=O)CCS(=O)(=O)C3)cc1` (centres unmarked) [Compound 20], under “Table 1, Formula Ii compounds”, the pIC50 is 7.16.

As for `CC1=C(C(=O)OCCOC(=O)C(N)CCCCN)C(c2c(F)cccc2Cl)C2=C(CS(=O)(=O)CCS2(=O)=O)N1` (single isomer, unassigned) [Compound 64], the negative-log IC50 (pIC50) (Table 1, Formula Ii compounds) was 4.29. On to `CC1=C(C(=O)OCCOC(=O)CCN2CCCCC2)C(c2c(F)cccc2Cl)C2=C(CS(=O)(=O)CCS2(=O)=O)N1` (centres unmarked) [Compound 63], for which the pIC50 (Table 1, Formula Ii compounds) was 4.31. The same measure, in the same setting: the value for `CC1=C(C(=O)OCCOC(=O)C(Cc2ccccc2)N(C)C)C(c2c(F)cccc2Cl)C2=C(CS(=O)(=O)CCS2(=O)=O)N1` (centres unmarked) [Compound 45] was 6.27; that for `CC1=C(C(=O)OCCOC(=O)C(Cc2ccccc2)NC(=O)c2ccccc2)C(c2c(F)cccc2Cl)C2=C(CS(=O)(=O)CCS2(=O)=O)N1` (centres unmarked) [Compound 38] was 6.45. Regarding `CC1=C(C(=O)OCCOC(=O)CCc2ccccc2)C(c2c(F)cccc2Cl)C2=C(CS(=O)(=O)CCS2(=O)=O)N1` (centres unmarked) [Compound 12], where the note is “Table 1, Formula Ii compounds”, the negative-log IC50 (pIC50) was 7.32. For the molecule `CC1=C(C(=O)OCc2oc(=O)oc2C)C(c2cccc(Cl)c2Cl)C2=C(CS(=O)(=O)CCS2(=O)=O)N1` (centres unmarked) [Compound 21], where the note is “Table 1, Formula Ii compounds”, the pIC50 is 7.14. The same measure, in the same setting: with `CC1=C(C(=O)OC2CCOC2=O)C(c2cccc(Cl)c2Cl)C2=C(CS(=O)(=O)CCS2(=O)=O)N1` (centres unmarked) [Compound 43] the figure was 6.34; with `CC1=C(C(=O)OCCOC(=O)C(NC(=O)OC(C)(C)C)C(C)C)C(c2c(F)cccc2Cl)C2=C(CS(=O)(=O)CCS2(=O)=O)N1` (centres unmarked) [Compound 40], 6.39. Still for that read-out and setting: with `CC1=C(C(=O)OCCOC(=O)c2cccnc2)C(c2c(F)cccc2Cl)C2=C(CS(=O)(=O)CCS2(=O)=O)N1` (centres unmarked) [Compound 44] the figure was 6.30; with `CC1=C(C(=O)OCCOC(=O)C2CCOC2=O)C(c2c(F)cccc2Cl)C2=C(CS(=O)(=O)CCS2(=O)=O)N1` (centres unmarked) [Compound 62], 4.71. Turning to `CC1=C(C(=O)OCCOC(=O)C2CCCCC2)C(c2c(F)cccc2Cl)C2=C(CS(=O)(=O)CCCS2(=O)=O)N1` (centres unmarked) [Compound 70, 2H,6H-[1,5]dithiocino[3,2-b]pyridine-9-carboxylic acid, 10-(2-chloro-6-fluorophenyl)-3,4,7,10-tetrahydro-8-methyl-, 2-[(cyclohexylcarbonyl)oxy]ethyl ester, 1,1,5,5-tetraoxide], the negative logarithm of the IC50 (pIC50) (Table 2, Formula Ij compounds) is 7.19. Turning to `CC1=C(C(=O)OCCOC(=O)C(CCCCNC(=O)OCc2ccccc2)NC(=O)OC(C)(C)C)C(c2c(F)cccc2Cl)C2=C(CS(=O)(=O)CCS2(=O)=O)N1` (centres unmarked) [Compound 29], the pIC50 (Table 1, Formula Ii compounds) was 6.76.

What is called pIC50 is the negative decadic logarithm of the IC50, by convention in mol/L.
